What all share (type): functional, cell-based
One test relates to ECa-109 cell line. The test can be described thus: Antiproliferative activity against human EC109 cells assessed as inhibition of cell growth by SRB assay.
The subject of another test is MCF7. The experiment in a line: Antiproliferative activity against human MCF7 cells assessed as inhibition of cell growth by SRB assay.
The subject of a further test is HeLa. The experiment in a line: Antiproliferative activity against human HeLa cells assessed as inhibition of cell growth by SRB assay.
The next test concerns MGC-803. The test can be described thus: Antiproliferative activity against human MGC-803 cells assessed as inhibition of cell growth by SRB assay.

With `CCOc1ccccc1NC1=CC(=O)c2c(nc3n2[C@H]2OC[C@@H](O)[C@H]2OC3)C1=O`, the IC50 in the test on ECa-109 cell line was 4.32 µM; with MCF7 it was greater than 4 µM; in the test with HeLa it was 8.3 µM; with MGC-803, 2830 nM.

The values above are taken from ChEMBL document CHEMBL5113408, “Design, synthesis and antitumour activity of novel 5(6)-amino-benzimidazolequinones containing a fused morpholine” (Eur J Med Chem, 2022).
